The assay concerns the target T1, FSH receptor (Homo sapiens, UniProt P23945).
T1 construct: expressed in transfected cells; host or cells: CHO (Chinese Hamster Ovary) cells, stably transfected, carrying a cAMP response element-luciferase reporter
T1 sequence (P23945 18-695): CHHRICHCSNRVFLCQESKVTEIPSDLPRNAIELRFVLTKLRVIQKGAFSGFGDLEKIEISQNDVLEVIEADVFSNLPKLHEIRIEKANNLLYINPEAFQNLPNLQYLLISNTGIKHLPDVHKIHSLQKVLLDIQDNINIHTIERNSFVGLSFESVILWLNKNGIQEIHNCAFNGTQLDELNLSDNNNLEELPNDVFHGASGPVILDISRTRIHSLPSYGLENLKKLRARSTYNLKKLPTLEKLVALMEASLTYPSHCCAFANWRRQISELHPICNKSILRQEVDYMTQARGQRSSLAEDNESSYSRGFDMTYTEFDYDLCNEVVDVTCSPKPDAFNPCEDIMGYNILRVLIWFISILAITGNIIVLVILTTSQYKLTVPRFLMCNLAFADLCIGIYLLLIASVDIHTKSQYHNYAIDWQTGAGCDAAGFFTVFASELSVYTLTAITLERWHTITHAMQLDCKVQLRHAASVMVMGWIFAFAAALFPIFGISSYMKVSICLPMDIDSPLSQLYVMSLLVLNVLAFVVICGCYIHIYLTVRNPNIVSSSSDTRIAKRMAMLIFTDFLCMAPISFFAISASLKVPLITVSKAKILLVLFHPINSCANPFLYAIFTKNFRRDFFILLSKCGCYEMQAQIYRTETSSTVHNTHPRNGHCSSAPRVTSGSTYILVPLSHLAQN
Kind of assay: FSH assay: cAMP response element luciferase reporter in CHO cells expressing recombinant FSH receptor. In kind it is cell-based. To be noted: agonist activity; CHO cells stably transfected with recombinant FSH receptor; luciferase luminescence; log-dose-response curves; incubation 37° C. for 3 hrs 30 min; read-out: ED50 (the source's name). As to the method:
Compounds of the invention were tested in the following assay.
All compounds of the invention were stored in 96-well deepwell plates in DMSO at a nominal concentration of 10 μM. Compounds of the invention were screened for agonist activity at the FSH receptor using the recombinant FSH receptor stably transfected and expressed in Chinese Hamster Ovary Cells (CHO cells) essentially as described in the work by Kelton, et al. Molecular and Cellular Endocrinology, 1992, 89, 141-151). […] Thus an agonist at the FSH receptor increases cAMP in the cell which results in activation of the CREB (cAMP) response element binding protein). The substrate for the enzyme (Packard Instrument Company 800 Research Parkway, Meriden, Conn. 06450, USA) was added to the cells after appropriate incubation with the compounds or FSH and the amount of luciferase expressed was measured by quantitating the luminescence produced by the enzyme using a TopCount scintillation/luminescence counter running in single photon counting mode. A compound which acts as an agonist at the receptor should produce light from the treated cells in proportion to its concentration within the incubation. Luminescence should be saturable at high concentrations of the compound.
The compounds of the invention, in deepwell plates (Master plates) as indicated above were loaded on the robotic deck along with the appropriate number of assay plates and daughter plates. A 10 μl aliquot from each master plate was transferred to the corresponding daughter plate and 90 μl of DME/F12 was added and mixed within each well. 20 μl was then removed from the daughter plate and dispensed into the assay plate. After addition of an aliquot of FSH (equivalent to an EC100 response for this hormone to each of three wells on the plate, 80 μl of media (DME/F 12±2% serum) and 100 μl aliquot of cells (4×10^5/ml in the same media) were added and the plate incubated at 37° C. for 3 hrs 30 min. At this time the plate was removed from the incubator and media in each well was aspirated and the cells adhering to the bottom of the plate washed with 300 μl PBS containing 1 mM Ca^2+ and 1 mM Mg^2+. The PBS was aspirated and 100 μl PBS added to each well. 100 μl of Lucite (prepared as described by the manufacturer) was added to each well and the plate was shaken gently for 40 seconds prior to placement in the TopCount plate reader. After allowing 3.5 minutes for the plate to dark-adapt within the machine, the amount of luminescence generated was quantitated using Single Photon Counting mode. The data was transmitted electronically from the TopCount to the robot processing computer terminal and was renamed with an ID corresponding to the original master plate ID. […] LDR (log-dose-response) curves were generated for these compounds in CHO cells containing the FSH receptor and these curves were also compared with those in either cells expressing a different Gs linked receptor or in cells lacking any transfected receptor.
A general note: In a reporter assay the amount or activity of a reporter protein is the signal.
In the case of `CCCCCCN1CCN(S(=O)(=O)c2cccs2)[C@H](C(=O)Nc2ccc3[nH]c4c(c3c2)CCNC4=O)C1` [4-hexyl-1-(thiophene-2-sulfonyl)-piperazine-2-carboxylic acid (1-oxo-2,3,4,9-tetrahydro-1H-beta-carbolin-6-yl)-amide], the EC50 came to 978 nM.
To `CCCCCCN1CCN(S(=O)(=O)c2cccs2)[C@H](C(=O)Nc2ccc3c(c2)c2ccccc2n3CC)C1` [4-hexyl-1-(thiophene-2-sulfonyl)-piperazine-2-carboxylic acid (9-ethyl-9H-carbazol-3-yl) amide] belongs 380 nM; to `CCCCCCCCN1CCN(S(=O)(=O)c2cccs2)[C@H](C(=O)Nc2ccc3c(c2)nc(-c2ccncc2)n3CC)C1` [4-octyl-1-(thiophene-2-sulfonyl)-piperazine-2-carboxylic acid (1-ethyl-2-pyridin-4-yl-1H-benzoimidazol-5-yl)amide], 54 nM.
On to `CCCCC(=O)N1CCN(S(=O)(=O)c2cccs2)[C@H](C(=O)Nc2ccc3c(c2)c2ccccc2n3CC)C1` [4-pentanoyl-1-(thiophene-2-sulfonyl)-piperazine-2-carboxylic acid (9-ethyl-9H-carbazol-3-yl) amide], for which the EC50 was 402 nM.
Consider `CCCCCN1CCN(S(=O)(=O)c2cccs2)C(C(=O)Nc2ccc3[nH]c4c(c3c2)CCNC4=O)C1` (stereo not drawn) [4-pentyl-1-(thiophene-2-sulfonyl)-piperazine-2-carboxylic acid (1-oxo-2,3,4,9-tetrahydro-1H-beta-carbolin-6-yl)amide], for which the EC50 stood at 220 nM.
With `CCCCCN1CCN(S(=O)(=O)c2cccs2)[C@H](C(=O)Nc2ccc3c(c2)nc(-c2cccnc2)n3CC)C1` [4-pentyl-1-thiophene-2-sulfonyl)-piperazine-2-carboxylic acid (1-ethyl-2-pyridin-3-yl-1H-benzoimidazol-5-yl)amide], the EC50 stood at 150 nM.
In the case of `CCOC(=O)CNC(=O)N1CCN(S(=O)(=O)c2cccs2)[C@H](C(=O)Nc2ccc3c(c2)c2ccccc2n3CC)C1` [{[3-(9-ethyl-9H-carbazol-3-ylcarbamoyl)-4-(thiophene-2-sulfonyl)-piperazine-1-carbonyl]-amino}acetic acid ethyl ester], the EC50 worked out at 408 nM.

Values taken from patent US7754722B2, “Piperazine derivatives and methods of use” (Merck Serono SA, priority 2002, dated 2010).
